Assay results: patent US9102622B2 (University of Connecticut, priority 2006, dated 2015)
Where two headings read alike, the source gives them in different places.

Molecular target: fatty acid amide hydrolase (FAAH) (Rattus norvegicus (Rat), UniProt P97612)
Test: FAAH enzyme assay: inhibition of anandamide (AEA) hydrolysis, arachidonic acid quantified by HPLC
Assay type: biochemical
Details: for IC50 / Ki: eight-point assay; for IC50: anandamide hydrolysis by FAAH, read-out: IC50; for Ki: calculated with Prizm software, read-out: Ki; for inhibition at 100 µM / inhibition at 0.1 µM: read-out: % Inhibition (Concentration); for inhibition at 0.1 µM: inhibitor 100 nM
Protocol: The resulting supernatant is injected onto the HPLC.

[1] = one-point assay, inhibitor 100 μM, partially purified rat brain FAAH, 15 min
[2] = one-point assay, partially purified rat brain FAAH, 15 min

Chain of fatty acid amide hydrolase (FAAH) (P97612 whole entry): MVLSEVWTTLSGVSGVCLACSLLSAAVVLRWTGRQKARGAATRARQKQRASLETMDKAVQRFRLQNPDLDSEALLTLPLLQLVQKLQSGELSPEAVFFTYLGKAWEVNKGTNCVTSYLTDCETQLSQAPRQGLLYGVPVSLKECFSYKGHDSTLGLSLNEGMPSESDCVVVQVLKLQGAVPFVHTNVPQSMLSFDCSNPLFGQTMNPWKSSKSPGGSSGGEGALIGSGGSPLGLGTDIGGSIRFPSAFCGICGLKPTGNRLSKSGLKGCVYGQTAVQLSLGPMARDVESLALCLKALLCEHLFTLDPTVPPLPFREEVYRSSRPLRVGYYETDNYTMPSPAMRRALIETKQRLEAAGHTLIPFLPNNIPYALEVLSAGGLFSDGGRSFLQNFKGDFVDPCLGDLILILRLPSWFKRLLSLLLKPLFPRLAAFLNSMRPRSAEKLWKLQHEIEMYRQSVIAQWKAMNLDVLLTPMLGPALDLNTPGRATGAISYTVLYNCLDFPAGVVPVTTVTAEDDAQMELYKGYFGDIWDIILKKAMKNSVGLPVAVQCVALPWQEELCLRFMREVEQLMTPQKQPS

| IC50 [nM] | Ki [nM] | inhibition at 100 µM [1] [%] | inhibition at 0.1 µM [2] [%] | SMILES | inhibition at 100 µM [%] |
| --- | --- | --- | --- | --- | --- |
| 1670 | 530 | 97 | – | Cc1nnc(C(=O)C(F)(F)c2ccc(Br)cc2)o1 [Compound 93.5, 2-(4-Bromophenyl)-2,2-difluoro-1-(5-methyl-1,3,4-oxadiazol-2-yl)ethanone] | – |
| 210 | 65 | – | 41 | Cc1nnc(C(=O)C(F)(F)c2ccc(-c3ccccc3)cc2)o1 [Compound 93.1, 2-(Biphenyl-4-yl)-2,2-difluoro-1-(5-methyl-1,3,4-oxadiazol-2-yl)ethanone] | – |
| – | – | 94 | – | O=C(c1cccc(Br)n1)C(F)(F)c1ccc(-c2ccccc2)cc1 [Compound 93.7, 2-(Biphenyl-4-yl)-1-(6-bromopyridin-2-yl)-2,2-difluoroethanone] | – |
| – | – | 42 | – | O=C1c2ccccc2S(=O)(=O)N1Cc1ccccc1 [Compound 83.1, N-(Phenylmethyl)saccharin] | – |
| 77 | 24 | – | 52 | O=C(c1ccccn1)C(F)(F)CCCCOc1ccccc1 [Compound 89.9, 2,2-Difluoro-6-phenoxy-1-(pyridin-2-yl)-hexan-1-one] | – |
| 230 | 70 | 87 | – | CC(=O)C(F)(F)CCCCCOc1ccccc1 [Compound 89.4, 3,3-difluoro-8-phenoxy-2-octanone] | – |
| 4000 | 1200 | 84 | – | CCOC(=O)Nc1ccc(Br)cc1 [Compound 48.2] | – |
| 10900 | – | 87 | – | O=C1c2ccccc2S(=O)(=O)N1CCCCOc1ccc(OCc2ccccc2)cc1 [Compound 83.3, N-[4-(4-Benzyloxy-phenoxy)-butyl]saccharin] | – |
| 38 | – | – | – | Cc1nnc(C(=O)C(F)(F)CCCCOc2cccc(OCc3ccccc3)c2)o1 [Compound 89.13] | – |
| – | – | 25 | – | O=C(Nc1ccc(Br)cc1)OC1CCCCC1 [Compound 48.1, (4-Bromophenyl)carbamic acid cyclohexyl ester] | – |
| – | – | 36 | – | O=C(Nc1ccc(Br)cc1)OCc1ccccc1 [Compound 48.3, (4-Bromophenyl)carbamic acid benzyl ester] | – |
| 31 | 9 | – | – | Cc1nnc(C(=O)C(F)(F)CCCCCCOc2ccccc2)o1 [Compound 89.7, 2,2-Difluoro-8-phenoxy-1-(5-methyl-1,3,4-oxadiazol-2-yl)-octan-1-one] | – |
| – | – | 100 | – | CCOC(=O)C(=O)CCCCOc1cccc(OCc2ccccc2)c1 [Compound 87.1] | – |
| – | – | 61 | – | O=C(c1ccc(-c2ccccc2)cc1)C(F)(F)c1ccccn1 [Compound 96.2, 1 (Biphenyl-4-yl)-2,2-difluoro-2-(pyridin-2-yl)ethanone] | – |
| – | – | 56 | – | O=C(Nc1ccc(Br)cc1)OC12CC3CC(CC(C3)C1)C2 [Compound 48.4] | – |
| 15000 | 4600 | 86 | – | CCOC(=O)C(=O)c1ccc(-c2ccccc2)cc1 [Compound 91.1, Ethyl 2-(biphenyl-4-yl)-2-oxoacetate] | – |
| 164 | 52 | – | 33 | O=C(c1cccnc1)C(F)(F)CCCCOc1ccccc1 [Compound 89.10, 2,2-Difluoro-6-phenoxy-1-(pyridin-3-yl)-hexan-1-one] | – |
| 120 | 8 | 96 | – | Cc1nnc(C(=O)CCCCCCOc2ccc(OCc3ccccc3)cc2)o1 [Compound 65.2, 7-(4-Benzyloxy-phenoxy)-1-(5-methyl-1,3,4-oxadiazol-2-yl)-heptan-1-one] | – |
| 270 | 80 | – | 79 | CC(=O)C(F)(F)CCCCOc1cccc(OCc2ccccc2)c1 [Compound 89.1] | – |
| 310 | 100 | – | 20 | Cc1nnc(C(=O)C(F)(F)CCCCOc2ccccc2)o1 [Compound 89.12] | – |
| – | – | 89 | – | O=C(NCc1ccc(Br)cc1)OCc1ccccc1 [Compound 57.2, (4-Bromobenzyl)carbamic acid benzyl ester] | – |

Second part, the compound before the results:

| SMILES | IC50 [nM] | Ki [nM] | inhibition at 100 µM [1] [%] | inhibition at 0.1 µM [2] [%] | inhibition at 100 µM [%] |
| --- | --- | --- | --- | --- | --- |
| CCCCCCC(C)(C)c1cc(O)c(-c2ccc(NC(=O)OCc3ccccc3)cc2)c(O)c1 [Compound 53.3, 2′,6′-Dihydroxy-4′-(2-methyloctane-2-yl)biphenyl-4-yl carbamic acid benzyl ester] | – | – | 89 | – | – |
| O=S(=O)(F)CCCCCCCc1cccc(O)c1 [Compound 14.2, 7-(3-Hydroxy-phenyl)-heptanesulfonyl fluoride] | 113 | 26 | 99 | – | – |
| O=C(Cc1cccc(-c2cccc(OCc3ccccc3)c2)c1)C(F)(F)F [Compound 35, 1,1,1-Trifluoro-3-(3-benzyloxy-biphenyl-3-yl)-2-propanone] | – | – | 54 | – | – |
| COc1cccc(C(=O)c2nnc(C)o2)c1 [Compound 81, 1-(3-Methoxy-phenyl)-1-(5-methyl-1,3,4-oxadiazol-2-yl)-ketone] | – | – | 24 | – | – |
| OC(O)(c1ccccn1)C(F)(F)CCCCOc1ccccc1 [Compound 89.9 Hydrate form] | 39 | 12 | – | 63 | – |
| CCCCCCC(C)(C)c1cc(O)c(-c2ccc(NC(=O)OC3CCCCC3)cc2)c(O)c1 [Compound 53.1, 2′,6′-Dihydroxy-4′-(2-methyloctan-2-yl)biphenyl-4-yl carbamic acid cyclohexyl ester] | – | – | 23 | – | – |
| O=C(CCCOc1ccccc1O)C(F)(F)F [Compound 24.8, 1,1,1-Trifluoro-5-[2-(hydroxy)phenoxy]-2-pentanone] | 138000 | 15300 | 43 | – | – |
| O=S(=O)(F)CCCCCCCc1ccccc1O [Compound 14.3, 7-(2-Hydroxy-phenyl)-heptanesulfonyl fluoride] | 54 | 13 | 100 | – | – |
| O=C(CCCOc1cccc(OCc2ccccc2)c1)C(F)(F)F [Compound 23.5, 1,1,1-Trifluoro-5-[3-(Benzyloxy)phenoxy]-2-pentanone] | 6900 | 770 | 93 | – | – |
| O=S(=O)(Cl)CCCCCc1ccc(OCc2ccccc2)cc1 [Compound 12.4, 5-(4-Benzyloxy-phenyl)-pentanesulfonyl chloride] | – | – | 95 | – | – |
| O=C(CCCc1ccccc1)C(F)(F)F [Compound 27.1, 1,1,1-Trifluoro-5-phenyl-2-pentanone] | 69400 | 4600 | 46 | – | – |
| O=C(CCCOc1ccccc1)C(F)(F)F [Compound 23.11, 1,1,1-Trifluoro-5-phenoxy-2-pentanone] | 11200 | 1200 | 79 | – | – |
| O=C(c1cccc(-c2cccc(OCc3ccccc3)c2)c1)C(F)(F)F [Compound 30] | – | – | 33 | – | – |
| O=C(CCCOc1ccc(O)cc1)C(F)(F)F [Compound 24.1, 1,1,1-Trifluoro-5-[4-(hydroxy)phenoxy]-2-pentanone] | 14900 | 1700 | 68 | – | – |
| CCCCCCC(C)(C)c1cc(OCOCC)c(-c2ccc(NC(=O)OCc3ccccc3)cc2)c(OCOCC)c1 [Compound 52.3, 2′,6′-Bis(ethoxymethoxy)-4′-(1,1-dimethylheptyl)[1,1′-biphenyl]-4-yl carbamic acid benzyl ester] | – | – | 41 | – | – |
| COc1ccc(CCCCC(=O)C(F)(F)F)cc1 [Compound 27.4, 1,1,1-Trifluoro-6-(4-methoxy-phenyl)-2-hexanone] | 6900 | 600 | 82 | – | – |
| CCCCCCc1ccc(O)c(-c2ccc(C(=O)C(F)(F)F)cc2)c1OC [Compound 40.3, 2,2,2-Trifluoro-1-(3′-hexyl-6′-hydroxy-2′-methoxybiphenyl-4-yl)ethanone] | – | – | 81 | – | – |
| CCCCCCC(C)(C)c1cc(O)c(-c2ccc(C(=O)C(F)(F)F)cc2)c(O)c1 [Compound 40.1, 1-(2′,6′-dihydroxy-4′-(2-methyloctan-2-yl)biphenyl-4-yl)-2,2,2-trifluoroethanone] | – | – | 36 | – | – |
| O=C(CCCCCOc1ccc(O)cc1)C(F)(F)F [Compound 24.3, 1,1,1-Trifluoro-7-[4-(hydroxy)phenoxy]-2-heptanone] | 11400 | 800 | 86 | – | – |
| O=C(CCCCCc1ccccc1)C(F)(F)F [Compound 27.3, 1,1,1-Trifluoro-7-phenyl-2-heptanone, reference compound] | 11100 | 1230 | 83 | – | – |
| Cc1nnc(C(=O)CCCCCCOc2ccc(O)cc2)o1 [Compound 66, 7-(4-Hydroxy-phenoxy)-1-(5-methyl-1,3,4-oxadiazol-2-yl)-heptan-1-one] | 100 | 6 | – | – | 97 |
| CCCCCCC(C)(C)c1cc(O)c(-c2ccc(NC(=O)OCC)cc2)c(O)c1 [Compound 53.2, 2′,6′-Dihydroxy-4′-(1,1-dimethylheptyl)[1,1′-biphenyl]-4-yl carbamic acid ethyl ester] | – | – | 15 | – | – |
| O=S(=O)(F)CCCCCCCc1ccccc1 [Compound 4.2, 7-Phenyl-heptanesulfonyl fluoride, reference compound] | – | – | 31 | – | – |
| CCCCCCC(C)(C)c1cc(OCOC)c(-c2ccc(NC(=O)OCC)cc2)c(OCOC)c1 [Compound 52.2, 2′,6′-Bis(methoxymethoxy)-4′-(1,1-dimethylheptyl)[1,1′-biphenyl]-4-yl carbamic acid ethyl ester] | – | – | 64 | – | – |
| O=C(CCCCOc1cccc(OCc2ccccc2)c1)C(F)(F)F [Compound 23.6, 1,1,1-Trifluoro-6-[3-(Benzyloxy)phenoxy]-2-hexanone] | 6600 | 470 | 97 | – | – |
| O=C(CCCCCCOc1ccc(OCc2ccccc2)cc1)c1nnc(COCc2ccccc2)o1 [Compound 73.2, 7-(4-Benzyloxy-phenoxy)-1-(5-benzyloxymethyl-1,3,4-oxadiazol-2-yl)-heptan-1-one] | 21 | 2 | – | – | 93 |
